Experimental data from patent publication US20220324865A1 (Bayer Aktiengesellschaft, priority 2018, published 2022).

Each compound was assayed against T1, human EP3 receptor (Homo sapiens, UniProt P43115) (assay: Cellular in vitro assay for determining EP3 receptor activity (human EP3 cell line, sulprostone-stimulated calcium luminescence)). Conditions: CHO cells expressing human EP3 and mitochondrial Clytin; antagonist mode, sulprostone at EC50; read-out: EP3 CHO mtCLY ANTAG IC50.
T1 construct: expressed in transfected cells; host or cells: CHO K1 (Chinese Hamster Ovary), stably co-transfected with Galpha16 and mitochondrial clytin
T1 sequence (P43115 1-390): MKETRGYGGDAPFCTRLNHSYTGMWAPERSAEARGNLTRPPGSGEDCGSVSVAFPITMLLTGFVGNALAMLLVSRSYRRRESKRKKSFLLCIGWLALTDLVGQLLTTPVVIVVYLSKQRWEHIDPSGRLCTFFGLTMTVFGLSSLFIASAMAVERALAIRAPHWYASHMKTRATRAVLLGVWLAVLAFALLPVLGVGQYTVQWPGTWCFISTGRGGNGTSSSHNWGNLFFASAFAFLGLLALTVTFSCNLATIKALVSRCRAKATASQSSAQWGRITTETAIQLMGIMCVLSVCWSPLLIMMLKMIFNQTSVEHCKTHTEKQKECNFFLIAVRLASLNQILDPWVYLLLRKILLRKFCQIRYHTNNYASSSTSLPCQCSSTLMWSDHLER
Type: cell-based
Summary of the method: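 Antagonist activity was measured as inhibition of the luminescent calcium signal elicited by EC50 sulprostone, following 10 min compound pretreatment. The cell line was recombinant CHO K1 co-expressing human EP3, Gα16 and the photoprotein Clytin, reconstituted with coelenterazine.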

IC50 [nM] | SMILES
2.55 | COc1ccc2c(c1)CCCC2NC(=O)c1nn2cc(-c3cnc4cccc(C)c4c3)[nH]c(=O)c2c1C(C)C (centres unmarked) [Example 4-64, 3-Isopropyl-N-(6-methoxy-1,2,3,4-tetrahydronaphthalen-1-yl)-6-(5-methylquinolin-3-yl)-4-oxo-4,5-dihydropyrazolo[1,5-a]pyrazine-2-carboxamide]
1.33 | Cc1ccc(-c2cn3nc(C(=O)N[C@@H](c4ccc(F)cc4)C(C)(C)O)c(C)c3c(=O)[nH]2)cc1Cl [Example 1-148, 6-(3-Chloro-4-methylphenyl)-N-[(1S)-1-(4-fluorophenyl)-2-hydroxy-2-methylpropyl]-3-methyl-4-oxo-4,5-dihydropyrazolo[1,5-a]pyrazine-2-carboxamide]
3.15 | Cc1cc(-c2cn3nc(C(=O)N[C@@H](c4ccc(F)cc4)C(C)(C)O)c(C(F)(F)F)c3c(=O)[nH]2)ccc1Cl [Example 1-166, 6-(4-Chloro-3-methylphenyl)-N-[(1S)-1-(4-fluorophenyl)-2-hydroxy-2-methylpropyl]-4-oxo-3-(trifluoromethyl)-4,5-dihydropyrazolo[1,5-a]pyrazine-2-carboxamide]
4.15 | CCc1ccc(C(C)NC(=O)c2nn3c(C)c(-c4ccc5ccccc5c4)[nH]c(=O)c3c2C)cc1 (centres unmarked) [Example 3-26, N-[1-(4-Ethylphenyl)ethyl]-3,7-dimethyl-6-(2-naphthyl)-4-oxo-5H-pyrazolo[1,5-a]pyrazine-2-carboxamide]
1.95 | CC[C@@H](C)NC(=O)c1nn2cc(-c3ccc(C)c(C)c3)[nH]c(=O)c2c1C(C)C [Example 1-140, N-[(2R)-Butan-2-yl]-6-(3,4-dimethylphenyl)-4-oxo-3-(propan-2-yl)-4,5-dihydropyrazolo[1,5-a]-pyrazine-2-carboxamide]
2.9 | CCn1cc(Cl)c(CNC(=O)c2nn3c(C)c(-c4ccc5ccccc5c4)[nH]c(=O)c3c2C)n1 [Example 3-8, N-[(4-Chloro-1-ethyl-1H-pyrazol-3-yl)methyl]-3,7-dimethyl-6-(naphthalen-2-yl)-4-oxo-4,5-dihydropyrazolo[1,5-a]pyrazine-2-carboxamide]
1.16 | CC[C@@H](C)NC(=O)c1nn2cc(-c3ccc(C)c(C)c3)[nH]c(=O)c2c1C1CC1 [Example 1-142, N-[(2R)-Butan-2-yl]-3-cyclopropyl-6-(3,4-dimethylphenyl)-4-oxo-4,5-dihydropyrazolo[1,5-a]-pyrazine-2-carboxamide]
2.2 | CC(C)(C)OC(=O)N1CC(C(NC(=O)c2cc3c(=O)[nH]c(-c4ccc5ccccc5c4)cn3n2)c2ccc(F)cc2)C1 (racemic) [Example 1-157, tert-Butyl 3-[(4-fluorophenyl)-[[6-(2-naphthyl)-4-oxo-5H-pyrazolo[1,5-a]pyrazine-2-carbonyl]amino]-methyl]azetidine-1-carboxylate (Racemate)]
4.45 | Cc1c(C(=O)NC(C)c2ccc3c(c2)OCCO3)nn2c(C)c(-c3ccc4ccccc4c3)[nH]c(=O)c12 (centres unmarked) [Example 3-31, N-[1-(2,3-Dihydro-1,4-benzodioxin-6-yl)ethyl]-3,7-dimethyl-6-(2-naphthyl)-4-oxo-5H-pyrazolo[1,5-a]pyrazine-2-carboxamide]
4.05 | Cc1cccc2ncc(-c3cn4nc(C(=O)NC(C)c5ccc(Cl)c(Cl)c5)c(C(C)C)c4c(=O)[nH]3)cc12 (centres unmarked) [Example 4-52, N-[1-(3,4-Dichlorophenyl)ethyl]-3-isopropyl-6-(5-methyl-3-quinolyl)-4-oxo-5H-pyrazolo[1,5-a]pyrazine-2-carboxamide]
2.4 | Cc1c(C(=O)NC2(c3ccccc3)CC2)nn2c(C)c(-c3ccc4ccccc4c3)[nH]c(=O)c12 [Example 3-25, 3,7-Dimethyl-6-(naphthalen-2-yl)-4-oxo-N-(1-phenylcyclopropyl)-4,5-dihydropyrazolo[1,5-a]pyrazine-2-carboxamide]
1.16 | COc1ccc(C(C)NC(=O)c2nn3cc(-c4cnc5cccc(C)c5c4)[nH]c(=O)c3c2C(C)C)cn1 (centres unmarked) [Example 4-6, 3-Isopropyl-N-[1-(6-methoxy-3-pyridyl)ethyl]-6-(5-methyl-3-quinolyl)-4-oxo-5H-pyrazolo[1,5-a]pyrazine-2-carboxamide]

More lines, now with the values behind:

SMILES | IC50 [nM]
COCc1c(C(=O)N[C@H](C)c2ccc(OC)nc2)nn2cc(-c3ccc4ccccc4c3)[nH]c(=O)c12 [Example 1-22, 3-(Methoxymethyl)-N-[(1R)-1-(6-methoxypyridin-3-yl)ethyl]-6-(naphthalen-2-yl)-4-oxo-4,5-dihydropyrazolo[1,5-a]pyrazine-2-carboxamide] | 0.37
Cc1cc(-c2cn3nc(C(=O)NC(C)c4ccccc4OC(F)F)cc3c(=O)[nH]2)ccc1C(F)(F)F (centres unmarked) [6-33] | 8.15
COc1ccc([C@@H](C)NC(=O)c2nn3cc(-c4ccc5ccccc5c4)[nH]c(=O)c3c2C(F)(F)F)cn1 [Example 1-79, N-[(1R)-1-(6-Methoxpyridin-3-yl)ethyl]-6-(naphthalen-2-yl)-4-oxo-3-(trifluoromethyl)-4,5-dihydro-pyrazolo[1,5-a]pyrazine-2-carboxamide] | 0.6
COC[C@@H](NC(=O)c1cc2c(=O)[nH]c(-c3ccc4ccccc4c3)cn2n1)c1ccccc1 [6-51] | 2.65
Cc1cc(-c2cn3nc(C(=O)NC(c4ccc(F)cc4)C4(O)CC4)c(C(F)(F)F)c3c(=O)[nH]2)ccc1Cl (single isomer, unassigned) [6-212] | 8.15
Cc1ccc(-c2cn3nc(C(=O)NCC(O)C(F)(F)F)c(C)c3c(=O)[nH]2)cc1F (single isomer, unassigned) [6-411] | 32.5
CC(C)c1c(C(=O)N[C@@H](c2ccc(F)cc2)C(C)(C)O)nn2cc(-c3cccc(Cl)c3)[nH]c(=O)c12 [6-683] | 1.06
Cc1cc(-c2cn3nc(C(=O)N[C@@H](c4ccc(F)cc4)C(F)(F)CO)c(C4CCC4)c3c(=O)[nH]2)ccc1Cl [6-619] | 1.15
COc1ccc(C2(NC(=O)c3cc4c(=O)[nH]c(-c5ccc6ccccc6c5)cn4n3)CN(C(=O)OC(C)(C)C)C2)cc1 [Example 1-57, tert.-Butyl 3-(4-methoxyphenyl)-3-({[6-(naphthalen-2-yl)-4-oxo-4,5-dihydropyrazolo[1,5-a]pyrazin-2-yl]carbonyl}amino)azetidine-1-carboxylate] | 4.9
C[C@@H](NC(=O)c1cc2c(=O)[nH]c(-c3ccc4ccccc4c3)cn2n1)c1ccc(C(F)(F)F)cc1 [Example 1-1, 6-(Naphthalen-2-yl)-4-oxo-N-{(1R)-1-[4-(trifluoromethyl)phenyl]ethyl}-4,5-dihydropyrazolo[1,5-a]-pyrazine-2-carboxamide] | 1.6
Cc1cc(-c2cn3nc(C(=O)NCC(C)(N)C(F)(F)F)c(C4CC4)c3c(=O)[nH]2)ccc1Cl (racemic) [6-319] | 1.17
Cc1ccc(-c2cn3nc(C(=O)N[C@@H](c4ccc(F)cc4)C(C)(C)O)c(C4CCC4)c3c(=O)[nH]2)cc1F [6-573] | 1.25
Cc1ccc(-c2cn3nc(C(=O)NC(C)c4ccc(O)cc4)cc3c(=O)[nH]2)cc1C (single isomer, unassigned) [6-348] | 3.55
Cc1ccc(-c2cn3nc(C(=O)NC(C)C4CCC4)c(C4CC4)c3c(=O)[nH]2)cc1Cl (centres unmarked) [6-279] | 0.49
Cc1ccc(-c2cn3nc(C(=O)N[C@H]4CCOC4)c(C(F)(F)F)c3c(=O)[nH]2)cc1Cl [6-186] | 5.35
C[C@@H](NC(=O)c1cc2c(=O)[nH]c(-c3ccc4c(c3)N(C)CCO4)cn2n1)c1ccc(F)cc1 [Example 1-102, N-[(1R)-1-(4-Fluorophenyl)ethyl]-6-(4-methyl-3,4-dihydro-2H-1,4-benzoxazin-6-yl)-4-oxo-4,5-dihydropyrazolo[1,5-a]pyrazin-2-carboxamide] | 1.35
O=C(N[C@H](CO)c1ccccc1)c1nn2cc(-c3ccc4ccccc4c3)[nH]c(=O)c2c1C(F)(F)F [Example 1-77, N-[(1S)-2-Hydroxy-1-phenylethyl]-6-(naphthalen-2-yl)-4-oxo-3-(trifluoromethyl)-4,5-dihydropyrazolo[1,5-a]pyrazine-2-carboxamide] | 1.18
Cc1ccc(-c2cn3nc(C(=O)N[C@H](CCO)c4ccc(F)cc4)c(C(F)(F)F)c3c(=O)[nH]2)cc1Cl [6-196] | 0.29
Cc1ccc(-c2cn3nc(C(=O)NCC(N)C(F)(F)F)c(C4CC4)c3c(=O)[nH]2)cc1F (single isomer, unassigned) [6-397] | 3.45
CCCN1CC(NC(=O)c2nn3cc(-c4ccc5ccccc5c4)[nH]c(=O)c3c2C(F)(F)F)(c2ccc(F)cc2)C1 [Example 1-127, N-[3-(4-Fluorophenyl)-1-propylazetidin-3-yl]-6-(naphthalen-2-yl)-4-oxo-3-(trifluoromethyl)-4,5-dihydropyrazolo[1,5-a]pyrazine-2-carboxamide] | 2.15
Cc1ccc(-c2cn3nc(C(=O)NCC(O)(C(F)(F)F)C(F)(F)F)c(C4CC4)c3c(=O)[nH]2)cc1F [6-403] | 0.69
O=C(NC(CCO)c1ccc(F)cc1)c1cc2c(=O)[nH]c(-c3ccc4cccnc4c3)cn2n1 (centres unmarked) [Example 1-62, N-[1-(4-Fluorophenyl)-3-hydroxpropyl]-4-oxo-6-(7-quinolyl)-5H-pyrazolo[1,5-a]pyrazine-2-carboxamide] | 3.6
Cc1ccc(-c2cn3nc(C(=O)N[C@@H](c4ccc(F)cc4)C(F)(F)CO)c(C(F)(F)C(F)(F)F)c3c(=O)[nH]2)cc1F [6-491] | 0.58
